Measured values taken from patent US7932270B2 (Cytokinetics, Inc., priority 2006, dated 2011).

Target: T1, chicken gizzard smooth muscle myosin subfragment-1 chemically crosslinked to cardiac or skeletal actin (Gallus gallus, UniProt P10587)
T1 construct: chicken gizzard smooth muscle myosin subfragment-1; from tissue; host or cells: chicken gizzard
Test: Smooth muscle myosin ATPase dose response assay (pyruvate kinase/horseradish peroxidase/pyruvate oxidase-coupled, amplex red fluorescence)
Format: biochemical
Settings: read-out: IC50 Arithmetic Mean
In short: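 EDC/NHS-crosslinked S1–actin, amount set per prep by rate titration. Buffer: 12 mM K-PIPES pH 7.00 (22° C), 100 mM KCl, 2 mM MgCl2, 0.15 mM ATP, 0.1 mM PEP, 2 mM KPi, 0.1 mM amplex red. Read ex 480/em 615 nm; IC50 = midpoint, 4-param Hill fit.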

T1 sequence (P02607 2-151): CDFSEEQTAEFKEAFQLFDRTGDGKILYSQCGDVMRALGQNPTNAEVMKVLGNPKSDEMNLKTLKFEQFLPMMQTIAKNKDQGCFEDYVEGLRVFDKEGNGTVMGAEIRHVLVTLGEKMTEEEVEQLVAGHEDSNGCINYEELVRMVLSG
T1 sequence (P10587 84-789): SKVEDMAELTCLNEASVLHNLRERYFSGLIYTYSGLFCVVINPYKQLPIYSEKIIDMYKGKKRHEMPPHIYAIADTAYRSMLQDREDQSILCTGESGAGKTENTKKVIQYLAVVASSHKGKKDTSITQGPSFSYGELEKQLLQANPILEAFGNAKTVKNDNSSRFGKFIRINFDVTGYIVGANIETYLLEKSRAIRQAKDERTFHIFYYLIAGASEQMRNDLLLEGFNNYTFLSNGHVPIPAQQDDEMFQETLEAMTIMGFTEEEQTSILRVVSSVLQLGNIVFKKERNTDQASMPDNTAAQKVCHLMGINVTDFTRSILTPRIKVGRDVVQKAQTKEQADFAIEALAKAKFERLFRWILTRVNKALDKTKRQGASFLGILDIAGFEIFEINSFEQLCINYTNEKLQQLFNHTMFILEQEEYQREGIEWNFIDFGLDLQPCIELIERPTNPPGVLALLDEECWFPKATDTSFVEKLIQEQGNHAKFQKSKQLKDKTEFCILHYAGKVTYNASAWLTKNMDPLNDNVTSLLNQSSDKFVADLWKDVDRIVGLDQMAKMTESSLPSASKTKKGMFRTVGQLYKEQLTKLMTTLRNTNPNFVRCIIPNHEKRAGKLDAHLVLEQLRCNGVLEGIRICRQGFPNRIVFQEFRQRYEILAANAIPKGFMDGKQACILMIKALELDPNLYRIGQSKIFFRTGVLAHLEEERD

| Compound | IC50 [nM] |
| --- | --- |
| NCCCNc1ncccc1CNC(=O)c1ccc(-c2cn[nH]c2)nc1NCCc1cccc(F)c1 [N-({2-[(3-aminopropyl)amino](3-pyridyl)}methyl)(2-{[2-(3-fluorophenyl)ethyl]amino}-6-pyrazol-4-yl(3-pyridyl))carboxamide] | 129 |
| CC(C)(C)OC(=O)NCCCC(=O)N1CCC[C@@H]1CNC(=O)c1cc(C#N)c(-c2cn[nH]c2)nc1NCCc1cccc(F)c1 [N-[((2R)-1-{4-[(tert-butoxy)carbonylamino]butanoyl}pyrrolidin-2-yl)methyl](5-cyano-2-{[2-(3-fluorophenyl)ethyl]amino}-6-pyrazol-4-yl(3-pyridyl))carboxamide] | 3420 |
| O=C(NCc1cccnc1)c1ccc(-c2ccsc2)nc1NCCc1ccccn1 [{2-[(2-(2-pyridyl)ethyl)amino]-6-(3-thienyl)(3-pyridyl)}-N-(3-pyridylmethyl)carboxamide] | 414 |
| CC(C)(C)OC(=O)NCCCN1C(=O)CCCC1CNC(=O)c1ccc(-c2ccccc2C#N)nc1NCCc1cccc(F)c1 (stereo not drawn) [N-[(1-{3-[(tert-butoxy)carbonylamino]propyl}-6-oxo(2-piperidyl))methyl](6-(2-cyanophenyl)-2-{[2-(3-fluorophenyl)ethyl]amino}(3-pyridyl))carboxamide] | 877 |
| C[C@H](CNC(=O)c1ccc(-c2ccccc2C#N)nc1NCCc1cccc(F)c1)NC(=O)CCCN | 204 |
| N#Cc1[nH]ncc1-c1ccc(C(=O)NCc2cccnc2)c(NCCc2cccc(F)c2)n1 [(6-(5-cyanopyrazol-4-yl)-2-{[2-(3-fluorophenyl)ethyl]amino}(3-pyridyl))-N-(3-pyridylmethyl)carboxamide] | 105 |
| CNC(=O)[C@H](C)CNC(=O)c1cc(F)c(-c2cnn(C)c2)nc1NCCc1cccc(F)c1 [(2R)-3-[(5-fluoro-2-{[2-(3-fluorophenyl)ethyl]amino}-6-(1-methylpyrazol-4-yl)(3-pyridyl))carbonylamino]-2-methyl-N-methylpropanamide] | 130 |
| CC(C)(C)OC(=O)NCC(=O)N1CC[C@@H]1CNC(=O)c1ccc(-c2cn[nH]c2)nc1NCCc1cccc(F)c1 [N-[((2R)-1-{2-[(tert-butoxy)carbonylamino]acetyl}azetidin-2-yl)methyl](2-{[2-(3-fluorophenyl)ethyl]amino}-6-pyrazol-4-yl(3-pyridyl))carboxamide] | 2990 |
| O=C(NCc1cccnc1)c1ccc(-c2ccccc2)nc1NCCc1cccs1 [{6-phenyl-2-[(2-(2-thienyl)ethyl)amino](3-pyridyl)}-N-(3-pyridylmethyl)carboxamide] | 149 |
| O=C1CNCC(CNC(=O)c2ccc(-c3ccn[nH]3)nc2NCCc2cccc(F)c2)N1 (stereo not drawn) [(2-{[2-(3-fluorophenyl)ethyl]amino}-6-pyrazol-5-yl(3-pyridyl))-N-[(6-oxopiperazin-2-yl)methyl]carboxamide] | 6950 |
| CNC(=O)[C@@H](CO)NC(=O)c1ccc(-c2ccccc2C#N)nc1NCCc1cccc(F)c1 [(2R)-2-[(6-(2-cyanophenyl)-2-{[2-(3-fluorophenyl)ethyl]amino}(3-pyridyl))carbonylamino]-3-hydroxy-N-methylpropanamide] | 544 |
| N#Cc1ccccc1-c1ccc(C(=O)NC[C@@H](CN)NC(=O)CN)c(NCCc2cccc(F)c2)n1 [N-((1R)-2-amino-1-{[(6-(2-cyanophenyl)-2-{[2-(3-fluorophenyl)ethyl]amino}(3-pyridyl))carbonylamino]methyl}ethyl)-2-aminoacetamide] | 12600 |
| Cn1cc(-c2ccc(C(=O)NC[C@H]3CCCN3C(=O)CCCNC(=O)OC(C)(C)C)c(NCCc3cccc(F)c3)n2)cn1 [N-[((2R)-1-{4-[(tert-butoxy)carbonylamino]butanoyl}pyrrolidin-2-yl)methyl](2-{[2-(3-fluorophenyl)ethyl]amino}-6-(1-methylpyrazol-4-yl)(3-pyridyl))carboxamide] | 3650 |
| NC(=O)c1ccc(-c2ccc(C(=O)NCc3cccnc3)c(NCCc3ccccn3)n2)cc1 [4-{6-[(2-(2-pyridyl)ethyl)amino]-5-[N-(3-pyridylmethyl)carbamoyl]-2-pyridyl}benzamide] | 2540 |
| CC1(C)OCC(CNC(=O)c2cc(F)c(-c3cn[nH]c3)nc2NCCc2cccc(F)c2)CO1 [N-[(2,2-dimethyl(1,3-dioxan-5-yl))methyl](5-fluoro-2-{[2-(3-fluorophenyl)ethyl]amino}-6-pyrazol-4-yl(3-pyridyl))carboxamide] | 927 |
| COc1ccc(C#N)c(-c2ccc(C(=O)NCc3cccnc3)c(NCCc3cccc(F)c3)n2)c1 [(6-(2-cyano-5-methoxyphenyl)-2-{[2-(3-fluorophenyl)ethyl]amino}(3-pyridyl))-N-(3-pyridylmethyl)carboxamide] | 41 |
| N#Cc1ccccc1-c1ccc(C(=O)NCc2cccc(C(N)=O)n2)c(NCCc2cccc(F)c2)n1 [6-{[(6-(2-cyanophenyl)-2-{[2-(3-fluorophenyl)ethyl]amino}-3-pyridyl)carbonylamino]methyl}pyridine-2-carboxamide] | 60 |
| CS(=O)(=O)NCC1CCCCN1C(=O)c1ccc(-c2ccccc2)nc1NCCc1ccccn1 (stereo not drawn) [2-{[(methylsulfonyl)amino]methyl}piperidyl 6-phenyl-2-[(2-(2-pyridyl)ethyl)amino](3-pyridyl) ketone] | 22200 |
| CC(C)(C)OC(=O)NCCC(=O)N1CCCC[C@H]1CNC(=O)c1ccc(-c2ccccc2C#N)nc1NCCc1cccc(F)c1 [N-[((2S)-1-{3-[(tert-butoxy)carbonylamino]propanoyl}(2-piperidyl))methyl](6-(2-cyanophenyl)-2-{[2-(3-fluorophenyl)ethyl]amino}(3-pyridyl))carboxamide] | 8640 |
| C[C@H](CNC(=O)c1cc(F)c(-c2cnn(C)c2)nc1NCCc1cccc(F)c1)C(=O)O [(2R)-3-[(5-fluoro-2-{[2-(3-fluorophenyl)ethyl]amino}-6-(1-methylpyrazol-4-yl)(3-pyridyl))carbonylamino]-2-methylpropanoic acid] | 3840 |
| NCC1CCCCN1C(=O)c1ccc(-c2ccccc2)nc1NCCc1ccccn1 (stereo not drawn) [2-(aminomethyl)piperidyl 6-phenyl-2-[(2-(2-pyridyl)ethyl)amino](3-pyridyl) ketone] | 18200 |
| O=C(NCc1cccnc1)c1ccc(-c2cccc(F)c2)nc1NCCc1ccccn1 [{6-(3-fluorophenyl)-2-[(2-(2-pyridyl)ethyl)amino](3-pyridyl)}-N-(3-pyridylmethyl)carboxamide] | 915 |

Further lines, results first:

| IC50 [nM] | Compound |
| --- | --- |
| 18 | NCCCNc1cccc(CNC(=O)c2ccc(-c3cn[nH]c3)nc2NCCc2cccc(F)c2)n1 [N-({6-[(3-aminopropyl)amino](2-pyridyl)}methyl)(2-{[2-(3-fluorophenyl)ethyl]amino}-6-pyrazol-4-yl(3-pyridyl))carboxamide] |
| 5250 | O=C(NCCc1ccccn1)c1ccc(-c2ccccc2)nc1NCCc1ccccc1 [{6-phenyl-2-[(2-phenylethyl)amino](3-pyridyl)}-N-(2-(2-pyridyl)ethyl)carboxamide] |
| 972 | O=C(NCc1cccnc1)c1ccc(-c2cnn(CCO)c2)nc1NCCc1cccc(F)c1 [(2-{[2-(3-fluorophenyl)ethyl]amino}-6-[1-(2-hydroxyethyl)pyrazol-4-yl](3-pyridyl))-N-(3-pyridylmethyl)carboxamide] |
| 3680 | C[C@H](CNC(=O)c1ccc(-c2ccccc2C#N)nc1NCCc1cccc(F)c1)N(C)C(=O)CCCNC(=O)OC(C)(C)C |
| 15500 | COC(=O)c1cc(Cl)c(-c2cnn(C)c2)nc1NCCc1cccc(F)c1 [methyl 5-chloro-2-{[2-(3-fluorophenyl)ethyl]amino}-6-(1-methylpyrazol-4-yl)pyridine-3-carboxylate] |
| 32 | N#Cc1ccccc1-c1ccc(C(=O)NCC2CCNC2=O)c(NCCc2cccc(F)c2)n1 (stereo not drawn) [(6-(2-cyanophenyl)-2-{[2-(3-fluorophenyl)ethyl]amino}(3-pyridyl))-N-[(2-oxopyrrolidin-3-yl)methyl]carboxamide] |
| 51 | N#Cc1ccccc1-c1ccc(C(=O)NC[C@H]2CCN2C(=O)C(O)CO)c(NCCc2cccc(F)c2)n1 (stereo partly drawn) [N-{[(2R)-1-(2,3-dihydroxypropanoyl)azetidin-2-yl]methyl}(6-(2-cyanophenyl)-2-{[2-(3-fluorophenyl)ethyl]amino}(3-pyridyl))carboxamide] |
| 107 | O=C(NCc1cccnc1)c1ccc(-c2ccccc2)nc1NCCc1ccccc1F [(2-{[2-(2-fluorophenyl)ethyl]amino}-6-phenyl(3-pyridyl))-N-(3-pyridylmethyl)carboxamide] |
| 148 | Cc1csc(-c2ccc(C(=O)NCc3cccnc3)c(NCCc3cccc(F)c3)n2)c1 [(2-{[2-(3-fluorophenyl)ethyl]amino}-6-(4-methyl(2-thienyl))(3-pyridyl))-N-(3-pyridylmethyl)carboxamide] |
| 70600 | (2-{[2-(2-oxoimidazolidinyl)ethyl]amino}-6-phenyl(3-pyridyl))-N-(3-pyridylmethyl)carboxamide |
| 173 | N#Cc1ccccc1-c1ccc(C(=O)NC[C@H]2CCCN(C(=O)CCN)C2)c(NCCc2cccc(F)c2)n1 [N-{[(3R)-1-(3-aminopropanoyl)(3-piperidyl)]methyl}(6-(2-cyanophenyl)-2-{[2-(3-fluorophenyl)ethyl]amino}(3-pyridyl))carboxamide] |
| 323 | N#Cc1ccccc1-c1ccc(C(=O)NCc2cncc(CN)c2)c(NCCc2cccc(F)c2)n1 [N-{[5-(aminomethyl)(3-pyridyl)]methyl}(6-(2-cyanophenyl)-2-{[2-(3-fluorophenyl)ethyl]amino}(3-pyridyl))carboxamide] |
| 3760 | NCCCn1ccc(CNC(=O)c2ccc(-c3cc[nH]n3)nc2NCCc2cccc(F)c2)n1 [N-{[1-(3-aminopropyl)pyrazol-3-yl]methyl}(2-{[2-(3-fluorophenyl)ethyl]amino}-6-pyrazol-3-yl(3-pyridyl))carboxamide] |
| 46 | O=C(NC[C@H]1CCN1C(=O)CO)c1cc(F)c(-c2cn[nH]c2)nc1NCCc1cccc(F)c1 [N-{[(2R)-1-(2-hydroxyacetyl)azetidin-2-yl]methyl}(5-fluoro-2-{[2-(3-fluorophenyl)ethyl]amino}-6-pyrazol-4-yl(3-pyridyl))carboxamide] |
